The values below come from US20260193271A1, “PAN-KRAS INHIBITOR COMPOUND” (ADLAI NORTYE BIOPHARMA CO., LTD., priority 2022, published 2026).

The subject of one assay is AsPC-1 (G12D). In words: In vitro cell proliferation inhibition test (CellTiter-Glo), AsPC-1. Format: cell-based. As to conditions: AsPC-1 pancreas cell line, KRAS (p.G12D), 72 h co-incubation. The essentials: (§1)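 IC50 was derived by four-parameter fitting of normalized CellTiter-Glo signals. These were measured after 72 h co-incubation with compound at 10 concentrations, 3-fold serial, final maximum 10 μM. Plating was 1000-5000 cells/well, adjusted to growth rate, with overnight attachment at 37 °C, 5% CO2.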
On the technique in general: Cellular ATP, detected with luciferase, serves as a proxy for viable cell number.

Another assay has as its system SW480 (G12V). Description: In vitro cell proliferation inhibition test (CellTiter-Glo), SW480. The class given is cell-based. As to conditions: SW480 colon cell line, KRAS (p.G12V), 72 h co-incubation. The essentials:
as §1

For orientation: IC50 means the point on the concentration scale where inhibition reaches its midpoint. Turning to “(1r,2R,3S)-N-((63S,4S,Z)-1^1-(2,2-difluoroethyl)-1^2-(2-((S)-1-methoxyethyl)-5-(2-(morpholinomethyl)pyrimidin-5-yl)pyridin-3-yl)-10,10-dimethyl-5,7-dioxo-6^1,6^2,6^3,6^4,6^5,6^6-hexahydro-1^1H-8-oxa-2(4,2)-thiazola-1(5,3)-indola-6(1,3)-pyridazinacycloundecaphane-4-yl)-2,3-dimethylcyclopropane-1-carboxamide [Compound 48]”, the IC50 with AsPC-1 (G12D) came out at 0.54 nM; with SW480 (G12V) it was 0.51 nM.
